According to ChEMBL document CHEMBL3885881, “DrugMatrix”:

Species on record: Rattus norvegicus
Assay: DrugMatrix - Regimen: Daily Repeat
Type: toxicity, organism-based, Sprague-Dawley
Design: regimen Daily Repeat, gender Male, age 6-8 weeks
Conditions: in vivo, po, route oral GAVAGE, vehicle 100 % WATER; for ABSOLUTE BASOPHIL / ABSOLUTE EOSINOPHIL / ABSOLUTE LYMPHOCYTE / ABSOLUTE MONOCYTE / ABSOLUTE SEGMENTED NEUTROPHIL / BASOPHIL / EOSINOPHIL / ERYTHROCYTE COUNT / HEMATOCRIT / HEMOGLOBIN / LEUKOCYTE COUNT / LYMPHOCYTE / MEAN CORPUSCULAR HEMOGLOBIN / MEAN CORPUSCULAR HEMOGLOBIN CONCENTRATION / MEAN CORPUSCULAR VOLUME / MONOCYTE / NEUTROPHIL / NUCLEATED RED BLOOD CELLS / PLATELET COUNT: tissue Blood; for ALANINE AMINOTRANSFERASE / ALBUMIN / ALKALINE PHOSPHATASE / ASPARTATE AMINOTRANSFERASE / BLOOD UREA NITROGEN / CARBON DIOXIDE / CHLORIDE / CHOLESTEROL / CREATINE PHOSPHOKINASE / CREATININE / GLUCOSE / LACTATE DEHYDROGENASE / LIPASE / PHOSPHORUS / POTASSIUM / SODIUM / TOTAL BILIRUBIN / TOTAL PROTEIN / URIC ACID: tissue Plasma
[1] = 0 mg/kg, 72 h, dose level Control, time 3 day
[2] = 0 mg/kg, 120 h, dose level Control, time 5 day
[3] = 100 mg/kg, 72 h, dose level Low, time 3 day
[4] = 100 mg/kg, 120 h, dose level Low, time 5 day

C[C@](N)(Cc1ccc(O)c(O)c1)C(=O)O [METHYLDOPA]
ABSOLUTE BASOPHIL [1]: 0 CELLS/uL | ABSOLUTE EOSINOPHIL [1]: 46 CELLS/uL | ABSOLUTE LYMPHOCYTE [1]: 10225.67 CELLS/uL | ABSOLUTE MONOCYTE [1]: 319.33 CELLS/uL | ABSOLUTE SEGMENTED NEUTROPHIL [1]: 1242.33 CELLS/uL | BASOPHIL [1]: 0% | EOSINOPHIL [1]: 0.33% | ERYTHROCYTE COUNT [1]: 5.17 x10E6/uL | HEMATOCRIT [1]: 33.43% | HEMOGLOBIN [1]: 12.55 G/DL | LEUKOCYTE COUNT [1]: 11.83 x10E3/uL | LYMPHOCYTE [1]: 86.5% | MEAN CORPUSCULAR HEMOGLOBIN [1]: 24.35 pg | MEAN CORPUSCULAR HEMOGLOBIN CONCENTRATION [1]: 37.57 G/DL | MEAN CORPUSCULAR VOLUME [1]: 64.8 fL | MONOCYTE [1]: 2.67% | NEUTROPHIL [1]: 10.5% | NUCLEATED RED BLOOD CELLS [1]: 0.17 /100WBC | PLATELET COUNT [1]: 1026.17 x10E3/uL | ALANINE AMINOTRANSFERASE [1]: 52.67 u/L | ALBUMIN [1]: 4.17 G/DL | ALKALINE PHOSPHATASE [1]: 331 u/L | ASPARTATE AMINOTRANSFERASE [1]: 92.33 u/L | BLOOD UREA NITROGEN [1]: 15.33 mg/dL | CARBON DIOXIDE [1]: 26.17 mmol/L | CHLORIDE [1]: 103.17 MEQ/L | CHOLESTEROL [1]: 73.67 mg/dL | CREATINE PHOSPHOKINASE [1]: 472.83 u/L | CREATININE [1]: 0.29 mg/dL | GLUCOSE [1]: 178.5 mg/dL | LACTATE DEHYDROGENASE [1]: 244.83 u/L | LIPASE [1]: 10.67 u/L | PHOSPHORUS [1]: 12.45 mg/dL | POTASSIUM [1]: 6.35 MEQ/L | SODIUM [1]: 144.27 MEQ/L | TOTAL BILIRUBIN [1]: 0.13 mg/dL | TOTAL PROTEIN [1]: 5.77 G/DL | URIC ACID [1]: 2.08 mg/dL | ABSOLUTE BASOPHIL [2]: 0 CELLS/uL | ABSOLUTE EOSINOPHIL [2]: 23.5 CELLS/uL | ABSOLUTE LYMPHOCYTE [2]: 12797.33 CELLS/uL | ABSOLUTE MONOCYTE [2]: 465.5 CELLS/uL | ABSOLUTE SEGMENTED NEUTROPHIL [2]: 1313.67 CELLS/uL | BASOPHIL [2]: 0% | EOSINOPHIL [2]: 0.17% | ERYTHROCYTE COUNT [2]: 5.76 x10E6/uL | HEMATOCRIT [2]: 36.72% | HEMOGLOBIN [2]: 13.72 G/DL | LEUKOCYTE COUNT [2]: 14.6 x10E3/uL | LYMPHOCYTE [2]: 87.5% | MEAN CORPUSCULAR HEMOGLOBIN [2]: 23.8 pg | MEAN CORPUSCULAR HEMOGLOBIN CONCENTRATION [2]: 37.35 G/DL | MEAN CORPUSCULAR VOLUME [2]: 63.72 fL | MONOCYTE [2]: 3.17% | NEUTROPHIL [2]: 9.17% | NUCLEATED RED BLOOD CELLS [2]: 0.33 /100WBC | PLATELET COUNT [2]: 1270.67 x10E3/uL | ALANINE AMINOTRANSFERASE [2]: 50.5 u/L | ALBUMIN [2]: 4.32 G/DL | ALKALINE PHOSPHATASE [2]: 339.67 u/L | ASPARTATE AMINOTRANSFERASE [2]: 88 u/L | BLOOD UREA NITROGEN [2]: 17 mg/dL | CARBON DIOXIDE [2]: 25 mmol/L | CHLORIDE [2]: 103.83 MEQ/L | CHOLESTEROL [2]: 71.33 mg/dL | CREATINE PHOSPHOKINASE [2]: 281.83 u/L | CREATININE [2]: 0.26 mg/dL | GLUCOSE [2]: 161.67 mg/dL | LACTATE DEHYDROGENASE [2]: 191.17 u/L | LIPASE [2]: 10.17 u/L | PHOSPHORUS [2]: 11.72 mg/dL | POTASSIUM [2]: 6.76 MEQ/L | SODIUM [2]: 145.17 MEQ/L | TOTAL BILIRUBIN [2]: 0.2 mg/dL | TOTAL PROTEIN [2]: 6.15 G/DL | URIC ACID [2]: 2 mg/dL | ABSOLUTE BASOPHIL [3]: 0 CELLS/uL | ABSOLUTE EOSINOPHIL [3]: 0 CELLS/uL | ABSOLUTE LYMPHOCYTE [3]: 10758.67 CELLS/uL | ABSOLUTE MONOCYTE [3]: 142 CELLS/uL | ABSOLUTE SEGMENTED NEUTROPHIL [3]: 1766 CELLS/uL | BASOPHIL [3]: 0% | EOSINOPHIL [3]: 0% | ERYTHROCYTE COUNT [3]: 5.69 x10E6/uL | HEMATOCRIT [3]: 36.1% | HEMOGLOBIN [3]: 13.63 G/DL | LEUKOCYTE COUNT [3]: 12.67 x10E3/uL | LYMPHOCYTE [3]: 85.33% | MEAN CORPUSCULAR HEMOGLOBIN [3]: 24.03 pg | MEAN CORPUSCULAR HEMOGLOBIN CONCENTRATION [3]: 37.8 G/DL | MEAN CORPUSCULAR VOLUME [3]: 63.63 fL | MONOCYTE [3]: 1% | NEUTROPHIL [3]: 13.67% | NUCLEATED RED BLOOD CELLS [3]: 0 /100WBC | PLATELET COUNT [3]: 1351.33 x10E3/uL | ALANINE AMINOTRANSFERASE [3]: 54 u/L | ALBUMIN [3]: 4.2 G/DL | ALKALINE PHOSPHATASE [3]: 332.33 u/L | ASPARTATE AMINOTRANSFERASE [3]: 92.67 u/L | BLOOD UREA NITROGEN [3]: 19.33 mg/dL | CARBON DIOXIDE [3]: 25.67 mmol/L | CHLORIDE [3]: 102.67 MEQ/L | CHOLESTEROL [3]: 84 mg/dL | CREATINE PHOSPHOKINASE [3]: 281.67 u/L | CREATININE [3]: 0.24 mg/dL | GLUCOSE [3]: 161.33 mg/dL | LACTATE DEHYDROGENASE [3]: 210.33 u/L | LIPASE [3]: 13 u/L | PHOSPHORUS [3]: 12.67 mg/dL | POTASSIUM [3]: 7.2 MEQ/L | SODIUM [3]: 145.7 MEQ/L | TOTAL BILIRUBIN [3]: 0.23 mg/dL | TOTAL PROTEIN [3]: 6.07 G/DL | URIC ACID [3]: 2.93 mg/dL | ABSOLUTE BASOPHIL [4]: 0 CELLS/uL | ABSOLUTE EOSINOPHIL [4]: 0 CELLS/uL | ABSOLUTE LYMPHOCYTE [4]: 9543.67 CELLS/uL | ABSOLUTE MONOCYTE [4]: 215.33 CELLS/uL | ABSOLUTE SEGMENTED NEUTROPHIL [4]: 1341 CELLS/uL | BASOPHIL [4]: 0% | EOSINOPHIL [4]: 0% | ERYTHROCYTE COUNT [4]: 5.03 x10E6/uL | HEMATOCRIT [4]: 32.97% | HEMOGLOBIN [4]: 12.67 G/DL | LEUKOCYTE COUNT [4]: 11.1 x10E3/uL | LYMPHOCYTE [4]: 86% | MEAN CORPUSCULAR HEMOGLOBIN [4]: 25.17 pg | MEAN CORPUSCULAR HEMOGLOBIN CONCENTRATION [4]: 38.47 G/DL | MEAN CORPUSCULAR VOLUME [4]: 65.47 fL | MONOCYTE [4]: 1.67% | NEUTROPHIL [4]: 12.33% | NUCLEATED RED BLOOD CELLS [4]: 0 /100WBC | PLATELET COUNT [4]: 979.33 x10E3/uL | ALANINE AMINOTRANSFERASE [4]: 56.67 u/L | ALBUMIN [4]: 4.1 G/DL | ALKALINE PHOSPHATASE [4]: 363.67 u/L | ASPARTATE AMINOTRANSFERASE [4]: 90 u/L | BLOOD UREA NITROGEN [4]: 17 mg/dL | CARBON DIOXIDE [4]: 24.33 mmol/L | CHLORIDE [4]: 103.33 MEQ/L | CHOLESTEROL [4]: 67 mg/dL | CREATINE PHOSPHOKINASE [4]: 265.33 u/L | CREATININE [4]: 0.56 mg/dL | GLUCOSE [4]: 159 mg/dL | LACTATE DEHYDROGENASE [4]: 154.33 u/L | LIPASE [4]: 13.33 u/L | PHOSPHORUS [4]: 11.83 mg/dL | POTASSIUM [4]: 6.26 MEQ/L | SODIUM [4]: 145.33 MEQ/L | TOTAL BILIRUBIN [4]: 0.17 mg/dL | TOTAL PROTEIN [4]: 5.8 G/DL | URIC ACID [4]: 1.6 mg/dL
